Data from patent US9540369B2, “Use of kinase inhibitors to increase the susceptibility of gram positive bacteria to beta lactam antibiotics” (Wisconsin Alumni Research Foundation, priority 2014, dated 2017).
Entries after “also recorded” stand apart in the source; their conditions may differ.

Columns and labels:
[1] = system: zebrafish (Danio rerio); experiment: Zebrafish toxicity assay; conditions: administered in their environment for five days
Procedure: Human kinase inhibitors were administered to zebrafish in their environment for five days.

[2] = system: L. monocytogenes; experiment: Broth growth curves of L. monocytogenes with antibiotic in presence or absence of kinase inhibitor; assay type: cell-based, Listeria monocytogenes; conditions: for synergy with ceftriaxone against L. monocytogenes: AIA drugs at 10 μM; for inhibition of growth in a β-lactam synergistic dependent manner: ceftriaxone
[3] = system: M. smegmatis; experiment: M. smegmatis growth curves with or without meropenem; assay type: cell-based, Mycobacterium smegmatis; conditions: 10 μM inhibitor
Procedure: Various AIA drugs were administered at 10 μM concentration to M. smegmatis, L. monocytogenes, and S. aureus.

[4] = system: Methicillin-resistant S. aureus (strain USA300); experiment: Broth growth curves of Methicillin-resistant S. aureus (USA300) with antibiotic in presence or absence of kinase inhibitor; assay type: cell-based, Staphylococcus aureus
[5] = system: PrkA; experiment: In vitro protein phosphorylation (autophosphorylation and MBP phosphorylation), PrkA; assay type: biochemical, L. monocytogenes; conditions: 1 μM, 10 μM or 100 μM inhibitor
Procedure: (§1) In vitro protein phosphorylation. […] To investigate substrate-level phosphorylation, ˜10 μg of myelin basic protein (Novatein Biosciences, Woburn, Mass.) were added to the reaction mixture described above and incubated at room temperature, overnight. The reactions were terminated by adding 5X SDS loading buffer. Samples were fractionated by SDS-PAGE, fixed and dried, and analyzed by autoradiography.

[6] = system: L. monocytogenes; assay type: cell-based, Listeria monocytogenes; conditions: β-lactam dependent growth inhibition
[7] = system: Lmo0618; experiment: In vitro protein phosphorylation (autophosphorylation and MBP phosphorylation), Lmo0618; assay type: biochemical, L. monocytogenes; conditions: 1 μM, 10 μM or 100 μM inhibitor
Procedure: as §1

[8] = system: MSRA; conditions: β-lactam dependent growth inhibition
[9] = target: PknB (Mycobacterium tuberculosis, UniProt P9WI81)
[10] = system: Stk1; experiment: Kinase-Glo assay, Stk1; assay type: biochemical, S. aureus; conditions: 0-40 μM inhibitor, 20 μM ATP, 10 μM MBP
[11] = system: PrkA; experiment: Kinase-Glo assay, PrkA; assay type: biochemical, L. monocytogenes
[12] = target: PrkA (PASTA kinase of L. monocytogenes; kinase domain, GST fusion) (Listeria monocytogenes, UniProt A0A0H3GI69); experiment: biochemical
[13] = 0-40 μM inhibitor, 20 μM ATP, 10 μM MBP

O=c1c2ccccc2[nH]c(=S)n1CCN1CCC(=C(c2ccc(F)cc2)c2ccc(F)cc2)CC1 [diacylglycerol kinase inhibitor II]
toxicity in zebrafish [1]: highly toxic

CCn1c(-c2nonc2N)nc2c(C#CC(C)(C)O)nc(CN3CCCC3)cc21 [GW1000163A]
synergy with ceftriaxone against L. monocytogenes [2]: did not exhibit such synergistic activity
synergistic activity with meropenem against M. smegmatis [3]: None

CCn1c(-c2nonc2N)nc2c(C#CC(C)(C)O)nc(O[C@@H](CN)c3ccccc3)cc21.O=C(O)C(F)(F)F [GSK1007102B]
synergy with ceftriaxone against L. monocytogenes [2]: can inhibit growth in concert with ceftriaxone
synergistic activity with meropenem against M. smegmatis [3]: showing such a synergistic effect
effect on M. smegmatis growth in the absence of a β-lactam ([3]; no additional drugs): minor affect on growth; also recorded: shows inhibition in the absence of a β-lactam

Cc1ncc(-c2ccnc(Nc3ccc(S(C)(=O)=O)cc3)n2)n1C(C)C [AZD5438]
synergy with β-lactam antibiotics against S. aureus ([4]; AZD5438, data not shown): not S. aureus
inhibition of PrkA autophosphorylation and substrate level (MBP) phosphorylation [5]: specifically inhibits PrkA
inhibition of growth in a β-lactam synergistic dependent manner ([2]; 50 μM AZD5438): capable of inhibiting L. monocytogenes growth
effective dose against L. monocytogenes [6]: 10 µM
inhibition of Lmo0618 phosphorylation activity [7]: not inhibiting

CCn1c(-c2nonc2N)nc2c(C#CC(C)(C)O)nc(OCCNC)cc21 [GSK949675A]
synergy with ceftriaxone against L. monocytogenes [2]: can inhibit growth in concert with ceftriaxone
effective dose against L. monocytogenes [6]: 10 µM
effective dose against MSRA [8]: 10 µM
synergistic activity with meropenem against M. smegmatis [3]: None

CCn1c(-c2nonc2N)nc2c(C#CC(C)(C)O)ncc(OC[C@@H]3CCCN3)c21 [GSK614526A]
synergy with ceftriaxone against L. monocytogenes [2]: can inhibit growth in concert with ceftriaxone
synergistic activity with meropenem against M. smegmatis [3]: None

CN[C@@H]1C[C@H]2O[C@@](C)([C@@H]1OC)n1c3ccccc3c3c4c(c5c6ccccc6n2c5c31)C(=O)NC4 [staurosporine]
S. aureus susceptibility to ceftriaxone or other β-lactam or non-β-lactam antibiotics ([4]; 10 μM staurosporine): unaffected
susceptibility to vancomycin or kanamycin ([2]; 10 μM staurosporine): unaffected
increase in susceptibility to ceftriaxone upon overexpression of prkA ([2]; prkA^theo strain, 2 mM theophylline, 10 μM staurosporine): 10 fold
bacterial morphology by immunofluorescence microscopy ([2]; staurosporine combined with β-lactam antibiotics): grossly disrupted bacterial morphology
sensitization to lysozyme ([2]; staurosporine, data not shown): increased the sensitization
increase in susceptibility to ceftriaxone ([2]; wild type, 10 μM staurosporine): 100 fold

CCn1c(-c2nonc2N)nc2c(C#CC(C)(C)O)ncc(OC[C@H]3CCCNC3)c21 [GSK690693, 4-(2-(4-amino-1,2,5-oxadiazol-3-yl)-1-ethyl-7-{[(3S)-3-piperidinylmethyl]oxy}-1H-imidazo[4,5-c]pyridin-4-yl)-2-methyl-3-butyn-2-ol]
inhibition of PknB enzymatic activity in vitro [9, 13]: can inhibit
inhibition for PknB compared to Stk1 ([9]; biochemical): four-fold increase in inhibition
toxicity in zebrafish [1]: does not induce toxicity
inhibition of Stk1 enzymatic activity in vitro [10]: can inhibit
inhibition of PrkA enzymatic activity in vitro [11, 13]: can inhibit
inhibition for PrkA compared to Stk1 ([11]; biochemical): four-fold increase in inhibition
synergy with ceftriaxone against L. monocytogenes [2]: can inhibit growth in concert with ceftriaxone
inhibition of growth in a β-lactam synergistic dependent manner ([2]; 100 μM GSK690693): inhibited L. monocytogenes growth in a β-lactam synergistic dependent manner
IC50 [12]: 1200 nM
effective dose against L. monocytogenes [6]: 10 µM
synergistic activity with meropenem against M. smegmatis [3]: exhibits synergy; also recorded: can work to inhibit growth synergistically with meropenem

CCn1c(-c2nonc2N)nc2c(C#CC(C)(C)O)nc(OC[C@@H](N)c3ccccc3)cc21 [GSK938890A]
synergy with ceftriaxone against L. monocytogenes [2]: can inhibit growth in concert with ceftriaxone
effective dose against L. monocytogenes [6]: 10 µM
synergistic activity with meropenem against M. smegmatis [3]: None

CCn1c(-c2nonc2N)nc2c(C#CC(C)(C)O)nc(OC[C@H](N)c3ccccc3)cc21 [GSK943949A]
synergy with ceftriaxone against L. monocytogenes [2]: can inhibit growth in concert with ceftriaxone
synergistic activity with meropenem against M. smegmatis [3]: None
